Legend:
M1 muscarinic receptor = biological target: T1, M1 muscarinic receptor (Homo sapiens, UniProt P11229); assay: Functional mobilization of intracellular calcium (FLIPR, Fluo-3), M1-CHO cells; type: cell-based; conditions: compound nos. 1-454; for Emax: 100% efficacy is the maximum response obtained with the Carbachol control, read-out: M1 Efficacy; for M1 Activity: M1-CHO cells, calcium mobilization
T1 construct: expressed in transfected cells; host or cells: CHO cells (M1-CHO, under zeocin and G418 selection)
T1 sequence (P11229 1-460): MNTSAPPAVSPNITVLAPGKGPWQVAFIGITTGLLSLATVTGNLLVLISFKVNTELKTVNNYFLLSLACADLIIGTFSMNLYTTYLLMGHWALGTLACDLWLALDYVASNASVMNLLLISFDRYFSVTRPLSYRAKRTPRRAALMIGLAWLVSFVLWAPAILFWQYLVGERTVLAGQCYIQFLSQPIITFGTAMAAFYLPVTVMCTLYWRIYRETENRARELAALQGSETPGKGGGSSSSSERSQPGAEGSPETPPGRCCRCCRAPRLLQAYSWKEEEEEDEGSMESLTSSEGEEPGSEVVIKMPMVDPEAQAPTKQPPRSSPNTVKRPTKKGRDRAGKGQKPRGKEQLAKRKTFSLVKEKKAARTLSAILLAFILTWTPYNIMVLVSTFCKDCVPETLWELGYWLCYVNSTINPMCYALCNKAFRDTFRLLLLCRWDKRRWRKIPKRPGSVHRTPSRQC
Outline: (§1)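 CHO lines stably carrying the muscarinic subtype, dye-loaded with Fluo-3 at 37° C for 60-90 min, receive test compound in 0.5% DMSO. Agonist effects are read directly; antagonist effects against carbachol at EC80 after 15 min pre-incubation.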

M4 muscarinic receptor = biological target: T2, M4 muscarinic receptor (Homo sapiens, UniProt P08173); assay: Functional mobilization of intracellular calcium (FLIPR, Fluo-3), M4-CHO cells; type: cell-based; conditions: compound nos. 1-454; for Emax: 100% efficacy is the maximum response obtained with the Carbachol control, read-out: M4 Efficacy; for M4 Activity: M4-CHO cells, calcium mobilization
T2 construct: expressed in transfected cells; host or cells: CHO cells (M4-CHO, under puromycin, zeocin and blasticidin selection)
T2 sequence (P08173 1-479): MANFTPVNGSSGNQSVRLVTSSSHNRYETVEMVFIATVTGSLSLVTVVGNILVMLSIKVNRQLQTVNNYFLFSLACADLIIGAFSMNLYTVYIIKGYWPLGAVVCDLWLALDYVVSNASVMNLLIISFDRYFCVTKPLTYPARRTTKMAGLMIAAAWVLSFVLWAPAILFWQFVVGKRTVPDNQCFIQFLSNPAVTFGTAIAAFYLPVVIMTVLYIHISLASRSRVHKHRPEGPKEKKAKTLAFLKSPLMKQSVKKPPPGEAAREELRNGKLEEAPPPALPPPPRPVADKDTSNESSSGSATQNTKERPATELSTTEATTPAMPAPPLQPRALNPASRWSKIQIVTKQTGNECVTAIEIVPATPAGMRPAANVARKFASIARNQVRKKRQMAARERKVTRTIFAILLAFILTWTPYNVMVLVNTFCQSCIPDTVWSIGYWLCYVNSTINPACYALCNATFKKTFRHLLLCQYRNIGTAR
Outline: as §1

| Structure (SMILES) | Emax (M1 muscarinic receptor) | M1 Activity (M1 muscarinic receptor) | Emax (M4 muscarinic receptor) | M4 Activity (M4 muscarinic receptor) |
| --- | --- | --- | --- | --- |
| c1ccc2c(c1)NCC21CCN(CC2CC3CCC2C3)CC1 (stereo not shown) [compound 110] | < 65% | +++ (activity was measured to be less than or equal to 0.7 μM) | < 55% | ++ (activity was measured to be between 0.1 μM and 4.0 μM) |
| Fc1ccc2c(c1)C1(CCN(C3CCC4CCC3C4)CC1)CN2 (stereo not shown) [compound 111] | 65 to 85% | +++ (activity was measured to be less than or equal to 0.7 μM) | < 55% | ++ (activity was measured to be between 0.1 μM and 4.0 μM) |
| O=C(O[C@@H]1CCOC1)N1CC2(CCN(C3CC4CCC(C3)N4C(=O)O[C@@H]3CCOC3)CC2)c2cc(F)ccc21 (stereo partly shown) [compound 112] | 65 to 85% | +++ (activity was measured to be less than or equal to 0.7 μM) | < 55% | ++ (activity was measured to be between 0.1 μM and 4.0 μM) |
| CCOC(=O)N1CCC(N2CCC3(CC2)CN(C(C)=O)c2ccc(F)cc23)C1 (stereo not shown) [compound 113] | 65 to 85% | +++ (activity was measured to be less than or equal to 0.7 μM) | < 55% | + (activity was measured to be greater than or equal to 4.0 μM) |
| CCCOC(=O)N1CC2(CCN(C3CCN(C(=O)OCC)CC3)CC2)c2cc(F)ccc21 [compound 114] | 65 to 85% | ++ (activity was measured to be between 0.7 μM and 3.0 μM) | < 55% | + (activity was measured to be greater than or equal to 4.0 μM) |
| CCCOC(=O)N1C2CCC1CC(N1CCC3(CC1)CN(C(=O)O[C@@H]1CCOC1)c1ccc(F)cc13)C2 (stereo partly shown) [compound 115] | 65 to 85% | +++ (activity was measured to be less than or equal to 0.7 μM) | < 55% | ++ (activity was measured to be between 0.1 μM and 4.0 μM) |
| Cc1ccc2c(c1)C1(CCN(C3CC4CCC3C4)CC1)CN2C(=O)OC(C)(C)C (stereo not shown) [compound 116] | 65 to 85% | +++ (activity was measured to be less than or equal to 0.7 μM) | < 55% | ++ (activity was measured to be between 0.1 μM and 4.0 μM) |
| COCCOC(=O)N1CC2(CCN(C3CC4CCC(C3)N4C(=O)OCCOC)CC2)c2cc(F)ccc21 (stereo not shown) [compound 117] | 65 to 85% | +++ (activity was measured to be less than or equal to 0.7 μM) | < 55% | ++ (activity was measured to be between 0.1 μM and 4.0 μM) |
| CC(=O)N1CC2(CCN(CC3CC4CCC3C4)CC2)c2cc(C)ccc21 (stereo not shown) [compound 118] | 65 to 85% | +++ (activity was measured to be less than or equal to 0.7 μM) | < 55% | + (activity was measured to be greater than or equal to 4.0 μM) |
| COCCOC(=O)N1C2CCC1CC(N1CCC3(CC1)CN(C(=O)N(C)C)c1ccc(F)cc13)C2 (stereo not shown) [compound 119, 2-methoxyethyl 3-(1-(dimethylcarbamoyl)-5-fluorospiro[indoline-3,4′-piperidine]-1′-yl)-8-azabicyclo[3.2.1]octane-8-carboxylate] | < 65% | +++ (activity was measured to be less than or equal to 0.7 μM) | < 55% | + (activity was measured to be greater than or equal to 4.0 μM) |
| CN(C)C(=O)N1CC2(CCN(C3CCN(C(=O)O[C@H]4CCOC4)CC3)CC2)c2cc(F)ccc21 [compound 120] | < 65% | ++ (activity was measured to be between 0.7 μM and 3.0 μM) | < 55% | + (activity was measured to be greater than or equal to 4.0 μM) |
| CS(=O)(=O)N1CC2(CCN(C3CC4CCC(C3)N4C(=O)OC3CCC3)CC2)c2cc(F)ccc21 (stereo not shown) [compound 122] | 65 to 85% | +++ (activity was measured to be less than or equal to 0.7 μM) | < 55% | ++ (activity was measured to be between 0.1 μM and 4.0 μM) |
| O=C(OC1CCC1)N1C2CCC1CC(N1CCC3(CC1)COc1ccc(F)cc13)C2 (stereo not shown) [compound 123] | < 65% | ++ (activity was measured to be between 0.7 μM and 3.0 μM) | < 55% | + (activity was measured to be greater than or equal to 4.0 μM) |
| O=C(OCC(F)(F)F)N1C2CCC1CC(N1CCC3(CC1)COc1ccc(F)cc13)C2 (stereo not shown) [compound 124] | < 65% | +++ (activity was measured to be less than or equal to 0.7 μM) | < 55% | ++ (activity was measured to be between 0.1 μM and 4.0 μM) |
| O=C(OC1CCC1)N1CC2(CCN(C3CC4CCC(C3)N4C(=O)O[C@H]3CCOC3)CC2)c2cc(F)ccc21 (stereo partly shown) [compound 125] | 65 to 85% | +++ (activity was measured to be less than or equal to 0.7 μM) | < 55% | ++ (activity was measured to be between 0.1 μM and 4.0 μM) |
| CCOC(=O)N1CCC(N2CCC3(CC2)CN(C(C)=O)c2ccc(-c4ccccc4)cc23)CC1 [compound 126] | < 65% | +++ (activity was measured to be less than or equal to 0.7 μM) | < 55% | + (activity was measured to be greater than or equal to 4.0 μM) |
| C#CCCOC(=O)N1CCC(N2CCC3(CC2)CN(C(=O)N(C)C)c2ccc(F)cc23)CC1 [compound 127] | 65 to 85% | +++ (activity was measured to be less than or equal to 0.7 μM) | < 55% | ++ (activity was measured to be between 0.1 μM and 4.0 μM) |
| CCOC(=O)N1CCC(N2CCC3(CC2)CN(C(C)=O)c2ccc(-c4ccoc4)cc23)CC1 [compound 128] | < 65% | +++ (activity was measured to be less than or equal to 0.7 μM) | < 55% | ++ (activity was measured to be between 0.1 μM and 4.0 μM) |
| COC(=O)N1CCC(CN2CCC3(CC2)CN(C(C)=O)c2ccc(F)cc23)CC1 [compound 129] | 65 to 85% | +++ (activity was measured to be less than or equal to 0.7 μM) | < 55% | + (activity was measured to be greater than or equal to 4.0 μM) |
| CN(C)C(=O)N1CC2(CCN(C3CC4CCC(C3)N4C(=O)O[C@H]3CCOC3)CC2)c2cc(F)ccc21 (stereo partly shown) [compound 130] | < 65% | +++ (activity was measured to be less than or equal to 0.7 μM) | < 55% | ++ (activity was measured to be between 0.1 μM and 4.0 μM) |
| CCCC1CCC(N2CCC3(CC2)CN(C(C)=O)c2ccc(F)cc23)CC1 (stereo not shown) [compound 131] | 65 to 85% | +++ (activity was measured to be less than or equal to 0.7 μM) | > 70% | ++ (activity was measured to be between 0.1 μM and 4.0 μM) |
| COC(=O)N1CCCC(N2CCC3(CC2)CN(C(C)=O)c2ccc(F)cc23)CC1 (stereo not shown) [compound 132] | > 85% | +++ (activity was measured to be less than or equal to 0.7 μM) | > 70% | +++ (activity was measured to be less than or equal to 0.1 μM) |
| O=C(OC1CCCC1)N1C2CCC1CC(N1CCC3(CC1)COc1ccc(F)cc13)C2 (stereo not shown) [compound 133] | > 85% | +++ (activity was measured to be less than or equal to 0.7 μM) | 55 to 70% | ++ (activity was measured to be between 0.1 μM and 4.0 μM) |
| O=C(C1CCC1)N1C2CCC1CC(N1CCC3(CC1)COc1ccc(F)cc13)C2 (stereo not shown) [compound 134] | > 85% | +++ (activity was measured to be less than or equal to 0.7 μM) | < 55% | ++ (activity was measured to be between 0.1 μM and 4.0 μM) |
| CC(=O)N1CC2(CCN(CC3CCOC3)CC2)c2cc(F)ccc21 (stereo not shown) [compound 135] | > 85% | +++ (activity was measured to be less than or equal to 0.7 μM) | > 70% | ++ (activity was measured to be between 0.1 μM and 4.0 μM) |

— patent US7858635B2 (priority 2005, dated 2010)
